Laboratory results published in patent publication US20250215029A1 (Recludix Pharma, Inc., priority 2022, published 2025).
pIC50: −log10 of the molar value.

Each compound was assayed against T1, pY705-STAT3 in PBMC (Homo sapiens, UniProt P40763) (assay: MSD-pSTAT-PBMC Assay (pSTAT3, IL-6 stimulated)). Details: PBMC, compound 3 hrs, then 10 ng/mL IL-6 for 10 min; Table 115; read-out: STAT3.
T1 construct: Cryopreserved Peripheral Blood Mononuclear Cells (PBMC) are from AllCells; host or cells: cryopreserved PBMC
T1 sequence (P40763 whole entry): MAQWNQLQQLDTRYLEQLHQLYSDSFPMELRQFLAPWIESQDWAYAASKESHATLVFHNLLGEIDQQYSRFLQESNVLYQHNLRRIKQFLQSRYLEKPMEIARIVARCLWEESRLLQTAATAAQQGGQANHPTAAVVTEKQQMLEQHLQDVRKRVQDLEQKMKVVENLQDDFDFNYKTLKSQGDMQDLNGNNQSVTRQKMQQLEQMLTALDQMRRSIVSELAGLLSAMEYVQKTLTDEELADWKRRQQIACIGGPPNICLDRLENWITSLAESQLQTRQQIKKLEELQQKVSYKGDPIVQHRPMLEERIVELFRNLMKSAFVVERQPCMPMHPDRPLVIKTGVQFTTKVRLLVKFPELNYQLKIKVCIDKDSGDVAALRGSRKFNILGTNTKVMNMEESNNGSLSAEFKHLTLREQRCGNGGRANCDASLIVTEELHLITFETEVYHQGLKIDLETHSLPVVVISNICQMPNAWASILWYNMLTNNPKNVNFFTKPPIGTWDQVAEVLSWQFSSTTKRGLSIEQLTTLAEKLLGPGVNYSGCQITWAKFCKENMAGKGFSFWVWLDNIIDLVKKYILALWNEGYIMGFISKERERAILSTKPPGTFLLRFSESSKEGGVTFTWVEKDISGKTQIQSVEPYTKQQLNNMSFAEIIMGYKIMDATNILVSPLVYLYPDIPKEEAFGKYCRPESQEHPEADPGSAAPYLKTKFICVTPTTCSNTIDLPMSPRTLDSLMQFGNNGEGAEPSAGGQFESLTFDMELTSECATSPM
Type: cell-based
Procedure, shortened: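 Inhibition of cytokine-induced STAT phosphorylation was measured in recovered human PBMC after 3 hrs compound exposure and a 10 min IL-4 (1 ng/mL) or IL-6 (10 ng/mL) challenge. MSD detection of pY641-STAT6 or pY705-STAT3 yielded IC50 values.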
CCCOC(=O)[C@H](C)NP(=O)(Cc1ccc2sc(C(=O)N[C@H]3CC[C@H](C)C[C@H]4CC[C@@H](C(=O)N5CC(c6cnccc6F)C5)N4C3=O)cc2c1)Oc1ccccc1 (stereo partly drawn) [Compound 993, propyl (((2-(((3S,6S,9S,10aR)-3-(3-(4-fluoropyridin-3-yl)azetidine-1-carbonyl)-9-methyl-5-oxodecahydropyrrolo [1,2-a]azocin-6-yl)carbamoyl)benzo [b]thiophen-5-yl)methyl)(phenoxy)phosphoryl)-L-alaninate] was tested, and the pIC50 was greater than 7.00. Compound CCCOC(=O)[C@H](C)NP(=O)(Oc1ccccc1)[C@@H](F)c1ccc2sc(C(=O)N[C@H]3CCC[C@H]4CC[C@@H](C(=O)N5CC(c6cnccc6F)C5)N4C3=O)cc2c1 (stereo partly drawn) [Compound 994, propyl (((R)-fluoro(2-(((3S,6S,9aS)-3-(3-(4-fluoropyridin-3-yl)azetidine-1-carbonyl)-5-oxooctahydro-1H-pyrrolo[1,2-a]azepin-6-yl)carbamoyl)benzo [b]thiophen-5-yl)methyl)(phenoxy)phosphoryl)-L-alaninate] has a pIC50 of 6.00 to 7.00. CCCOC(=O)[C@H](C)NP(=O)(Oc1ccccc1)C(F)c1ccc2sc(C(=O)N[C@H]3CCCC[C@H]4CC[C@@H](C(=O)N5CC(OCCOC)(c6cccnc6)C5)N4C3=O)cc2c1 (stereo partly drawn) [Compound 995, propyl ((fluoro(2-(((3S,6S,10aS)-3-(3-(2-methoxyethoxy)-3-(pyridin-3-yl)azetidine-1-carbonyl)-5-oxodecahydropyrrolo [1,2-a]azocin-6-yl)carbamoyl)benzo [b]thiophen-5-yl)methyl)(phenoxy)phosphoryl)-L-alaninate] was tested, and the pIC50 was greater than 7.00. In the case of CCCOC(=O)[C@H](C)NP(=O)(Cc1ccc2sc(C(=O)N[C@H]3CCC[C@H]4CC[C@@H](C(=O)N5CC(c6cnccc6OC(F)F)C5)N4C3=O)cc2c1)Oc1ccccc1 (stereo partly drawn) [Compound 996, propyl (((2-(((3S,6S,9aS)-3-(3-(4-(difluoromethoxy)pyridin-3-yl)azetidine-1-carbonyl)-5-oxooctahydro-1H-pyrrolo[1,2-a]azepin-6-yl)carbamoyl)benzo [b]thiophen-5-yl)methyl)(phenoxy) )phosphoryl)-L-alaninate], the pIC50 was 6.00 to 7.00. CC(C)(C)C(=O)SCCOP(=O)(OCCSC(=O)C(C)(C)C)C(F)(F)c1ccc2sc(C(=O)N[C@H]3CCC[C@H]4CC[C@@H](C(=O)NCc5cnc6[nH]cnc6c5)N4C3=O)cc2c1 [Compound 1002, S,S′-(((((2-(((3S,6S,9aS)-3-(((3H-imidazo[4,5-b]pyridin-6-yl)methyl)carbamoyl)-5-oxooctahydro-1H-pyrrolo[1,2-a]azepin-6-yl)carbamoyl)benzo [b]thiophen-5-yl)difluoromethyl)phosphoryl)bis(oxy))bis(ethane-2,1-diyl)) bis(2,2-dimethyl-propanethioate)] gave a pIC50 greater than 7.00. CCCCOC(=O)[C@@H]1CCCN1P(=O)(Cc1ccc2sc(C(=O)N[C@H]3CCC[C@H]4CC[C@@H](C(=O)N5CC(c6cccnc6)C5)N4C3=O)cc2c1)Oc1ccccc1 (stereo partly drawn) [Compound 1003, butyl (((2-(((3S,6S,9aS)-5-oxo-3-(3-(pyridin-3-yl)azetidine-1-carbonyl)octahydro-1H-pyrrolo[1,2-a]azepin-6-yl)carbamoyl)benzo [b]thiophen-5-yl)methyl)(phenoxy)phosphoryl)-L-prolinate] was tested, and the pIC50 was 5.52 to 6.00. Work on CC(C)(C)C(=O)SCCOP(=O)(OCCSC(=O)C(C)(C)C)C(F)(F)c1ccc2sc(C(=O)N[C@H]3CCCC[C@H]4CC[C@@H](C(=O)NCc5cnc6[nH]cnc6c5)N4C3=O)cc2c1 [Compound 1005, S,S′-(((((2-(((3S,6S,10aS)-3-(((3H-imidazo[4,5-b]pyridin-6-yl)methyl)carbamoyl)-5-oxodecahydropyrrolo [1,2-a]azocin-6-yl)carbamoyl)benzo [b]thiophen-5-yl)difluoromethyl)phosphoryl)bis(oxy))bis(ethane-2,1-diyl)) bis(2,2-dimethyl-propanethioate)] yielded a pIC50 greater than 7.00. For O=C(Cc1ccccc1)SCCOP(=O)(OCCSC(=O)Cc1ccccc1)C(F)(F)c1ccc2sc(C(=O)N[C@H]3CCC[C@H]4CC[C@@H](C(=O)N5CC(c6cccnc6)C5)N4C3=O)cc2c1 [Compound 1006, S,S′-((((difluoro(2-(((3S,6S,9aS)-5-oxo-3-(3-(pyridin-3-yl)azetidine-1-carbonyl)octahydro-1H-pyrrolo[1,2-a]azepin-6-yl)carbamoyl)benzo [b]thiophen-5-yl)methyl)phosphoryl)bis(oxy))bis(ethane-2,1-diyl)) bis(2-phenylethanethioate)], the pIC50 was greater than 7.00. CN=S(C)(=O)CC1(OC)CN(C(=O)C2CCC3CCCC(NC(=O)c4cc5cc(C(F)(F)P(=O)(OCCSC(=O)C(C)(C)C)OCCSC(=O)C(C)(C)C)ccc5s4)C(=O)N32)C1 [Compound 1015, S,S′-(((((2-(((3S,6S,9aS)-3-(3-((N,S-dimethyl-sulfonimidoyl)methyl)-3-methoxyazetidine-1-carbonyl)-5-oxooctahydro-1H-pyrrolo[1,2-a]azepin-6-yl)carbamoyl)benzo [b]thiophen-5-yl)difluoromethyl)phosphoryl)bis(oxy))bis(ethane-2,1-diyl)) bis(2,2-dimethyl-propanethioate)] showed a pIC50 greater than 7.00. CC[C@@H](C)OC(=O)[C@H](C)NP(=O)(Cc1ccc2sc(C(=O)N[C@H]3CCC[C@H]4CC[C@@H](C(=O)N5CC(c6cccnc6)C5)N4C3=O)cc2c1)Oc1ccccc1 (stereo partly drawn) [Compound 1016, (R)-sec-butyl (((2-(((3S,6S,9aS)-5-oxo-3-(3-(pyridin-3-yl)azetidine-1-carbonyl)octahydro-1H-pyrrolo[1,2-a]azepin-6-yl)carbamoyl)benzo [b]thiophen-5-yl)methyl)(phenoxy)phosphoryl)-L-alaninate] gave a pIC50 of 6.00 to 7.00. CCCOC(=O)[C@H](COC)NP(=O)(Cc1ccc2sc(C(=O)N[C@H]3CCC[C@H]4CC[C@@H](C(=O)N5CC(c6cnccc6N(C)C)C5)N4C3=O)cc2c1)Oc1ccccc1 (stereo partly drawn) [Compound 1017, propyl N-(((2-(((3S,6S,9aS)-3-(3-(4-(dimethylamino)pyridin-3-yl)azetidine-1-carbonyl)-5-oxooctahydro-1H-pyrrolo[1,2-a]azepin-6-yl)carbamoyl)benzo [b]thiophen-5-yl)methyl)(phenoxy)phosphoryl)-O-methyl-L-serinate] gave a pIC50 greater than 7.00. CCCOC(=O)[C@H](C)NP(=O)(Oc1ccccc1)[C@H](F)c1ccc2sc(C(=O)N[C@H]3CCC[C@H]4CC[C@@H](C(=O)N5CC(c6cncnc6N6CC[C@H]6COC)C5)N4C3=O)cc2c1 (stereo partly drawn) [Compound 1018, propyl (((S)-fluoro(2-(((3S,6S,9aS)-3-(3-(4-((S)-2-(methoxymethyl)azetidin-1-yl)pyrimidin-5-yl)azetidine-1-carbonyl)-5-oxooctahydro-1H-pyrrolo[1,2-a]azepin-6-yl)carbamoyl)benzo [b]thiophen-5-yl)methyl)(phenoxy)phosphoryl)-L-alaninate] was tested, and the pIC50 was greater than 7.00. Work on CCCOC(=O)[C@H](C)NP(=O)(Cc1ccc2sc(C(=O)N[C@H]3CCC[C@H]4CC[C@@H](C(=O)N5CC(c6cncnc6N6CCC6)C5)N4C3=O)cc2c1)Oc1ccccc1 (stereo partly drawn) [Compound 1019, propyl (((2-(((3S,6S,9aS)-3-(3-(4-(azetidin-1-yl)pyrimidin-5-yl)azetidine-1-carbonyl)-5-oxooctahydro-1H-pyrrolo[1,2-a]azepin-6-yl)carbamoyl)benzo [b]thiophen-5-yl)methyl)(phenoxy)phosphoryl)-L-alaninate] yielded a pIC50 greater than 7.00. For CCCOC(=O)[C@H](C)NP(=O)(Oc1ccccc1)C(F)c1ccc2sc(C(=O)N[C@H]3CCCC[C@H]4CC[C@@H](C(=O)N5CC(NCC(F)F)(c6ccccn6)C5)N4C3=O)cc2c1 (stereo partly drawn) [Compound 1020, propyl (((2-(((3S,6S,10aS)-3-(3-((2,2-difluoroethyl)amino)-3-(pyridin-2-yl)azetidine-1-carbonyl)-5-oxodecahydropyrrolo [1,2-a]azocin-6-yl)carbamoyl)benzo [b]thiophen-5-yl)fluoromethyl) (phenoxy)phosphoryl)-L-alaninate], the pIC50 was greater than 7.00. For CCCOC(=O)[C@H](C)NP(=O)(Cc1ccc2sc(C(=O)N[C@H]3C[C@@H](C)C[C@H]4CC[C@@H](C(=O)N5CC(c6cnccc6N(C)C)C5)N4C3=O)cc2c1)Oc1ccccc1 (stereo partly drawn) [Compound 1021, propyl (((2-(((3S,6S,8R,9aR)-3-(3-(4-(dimethylamino)pyridin-3-yl)azetidine-1-carbonyl)-8-methyl-5-oxooctahydro-1H-pyrrolo[1,2-a]azepin-6-yl)carbamoyl)benzo [b]thiophen-5-yl)methyl)(phenoxy)phosphoryl)-L-alaninate], the pIC50 was greater than 7.00.

Same assay, conditions: STAT3, PBMC, compound 3 hrs, then 10 ng/mL IL-6 for 10 min; Table 115
In the case of CCCOC(=O)[C@H](C)NP(=O)(Cc1ccc2sc(C(=O)N[C@H]3CCC[C@H]4CC[C@@H](C(=O)N5CC(c6cnc(C(F)F)cc6OC)C5)N4C3=O)cc2c1)Oc1ccccc1 (stereo partly drawn) [Compound 991, propyl (((2-(((3S,6S,9aS)-3-(3-(6-(difluoromethyl)-4-methoxypyridin-3-yl)azetidine-1-carbonyl)-5-oxooctahydro-1H-pyrrolo[1,2-a]azepin-6-yl)carbamoyl)benzo [b]thiophen-5-yl)methyl)(phenoxy)phosphoryl)-L-alaninate], the pIC50 was less than 5.52. Compound CCCCOC(=O)[C@H](C)NP(=O)(Cc1ccc2sc(C(=O)N[C@H]3CCC[C@H]4CC[C@@H](C(=O)N5CC(c6cccnc6)C5)N4C3=O)cc2c1)Oc1cccc2ccccc12 (stereo partly drawn) [Compound 1004, butyl ((naphthalen-1-yloxy)((2-(((3S,6S,9aS)-5-oxo-3-(3-(pyridin-3-yl)azetidine-1-carbonyl)octahydro-1H-pyrrolo[1,2-a]azepin-6-yl)carbamoyl)benzo [b]thiophen-5-yl)methyl)phosphoryl)-L-alaninate] has a pIC50 of 6.00 to 7.00.
